According to patent US10729130B2, “Nematicidal compositions and methods of using them” (Eden Research plc, priority 2004, dated 2020):
Values belong to the compound of their own block, whether it stands above or below them.

Key:
Assay type in all cases: physicochemical
[1] = Maximal citral and L-carvone loading in Baker's yeast particles (free terpene score); set-up: key to Free Terpene: +: “free terpene” refers to the visible presence of terpene in the centrifuged reaction mixture; −: The absence of free terpene indicates complete absorption of the terpene by the particles; conditions: for terpene emulsion absorbed and encapsulated per 10 mg of YP: Baker's YP 20 mg/ml; for Free Terpene: 500 μl 20 mg/ml YP, overnight room temperature
Description: Samples were centrifuged at 14,000×g for 10 minutes and the appearance of free terpene floating on the aqueous layer was scored. The expression “free terpene” refers to the visible presence of terpene in the centrifuged reaction mixture. The absence of free terpene indicates complete absorption of the terpene by the particles. The highest volume of terpene absorbed by the particles, as evidenced by the absence of free terpene, was recorded as the maximal volume of absorbed terpene emulsion.

[2] = Baker's YP loading of different terpenes and terpene mixtures; set-up: key to Free Terpene: +: “free terpene” refers to the visible presence of terpene in the centrifuged reaction mixture; −: The absence of free terpene indicates complete absorption of the terpene by the particles; conditions: for Free Terpene: Baker's YP 250 mg/ml 500 μl; for Vol. Loaded μl: approximate maximal terpene loading in Baker's YP
Description: (§1) Increasing volumes of terpene emulsion were mixed with 250 mg/ml Baker's YP or 250 mg/ml SAF Mannan™ overnight at room temperature as shown in Tables 27 and 28. Samples were centrifuged at 14,000×g for 10 minutes and the appearance of free terpene floating on the aqueous layer was scored. The highest volume of terpene emulsion absorbed by Baker's YP or SAF Mannan™ as evidenced by the absence of free terpene was recorded as the volume of absorbed terpene emulsion. Colour of encapsulated terpenes in the pellet was recorded.
(§2) Percentage loaded represents a ratio of the amount of terpene loaded to the amount of particle present (weight for weight).

[3] = SAF Mannan loading of different terpenes and terpene mixtures; set-up: key to Free Terpene: +: “free terpene” refers to the visible presence of terpene in the centrifuged reaction mixture; −: The absence of free terpene indicates complete absorption of the terpene by the particles; key to Free Terpene: phase inversion remark: Inverted = Phase Inverted - solids floating on top - no free oil; W = white; Y = yellow; conditions: for Free Terpene: SAF Mannan 500 μl (250 mg/ml), overnight, room temperature; for Vol. loaded (maximal terpene loading in SAF Mannan): approximate maximal loading, volume of terpene emulsion absorbed by SAF Mannan; for % Loaded w/w (maximal terpene loading in SAF Mannan): ratio of amount of terpene loaded to amount of particle present (weight for weight); for Free Terpene: phase inversion remark: SAF Mannan 500 μl, second line of the Free Terpene cell
Description: as §1, §2

[4] = Terpene stability: yellow colored oxidation product (colour of encapsulated terpene pellet); set-up: key to Colour: W = white; Y = yellow; sl = slight; int = intermediate; key to Color: White, W; Yellow, Y; Very Yellow, VY; conditions: for Color: Table 26, scored at 24 hours
Description: Loading reactions were set up as shown in Table 25 and left to incubate overnight. Samples were centrifuged at 14,000×g for 10 minutes and the appearance of free terpene floating on the aqueous layer and the color of the encapsulated terpenes in the pellet was scored. The highest volume of terpene absorbed by particles as evidenced by the absence of free terpene was recorded as the volume of absorbed terpene emulsion. The reactions were incubated for 1, 3, 6, 9 and 24 hours at room temperature or 37° C. After incubation samples were centrifuged at 14,000×g for 10 minutes and the appearance of free terpene floating on the aqueous layer was scored. The highest volume of terpene absorbed by the particles as evidenced by the absence of free terpene was recorded as the volume of absorbed terpene emulsion. Colour of the encapsulated pellet was scored at 24 hours. Increasing volumes of terpene emulsion were mixed with 250 mg/ml Baker's YP or 250 mg/ml SAF Mannan™ overnight at room temperature as shown in Tables 27 and 28. Samples were centrifuged at 14,000×g for 10 minutes and the appearance of free terpene floating on the aqueous layer was scored. The highest volume of terpene emulsion absorbed by Baker's YP or SAF Mannan™ as evidenced by the absence of free terpene was recorded as the volume of absorbed terpene emulsion. Colour of encapsulated terpenes in the pellet was recorded.

[5] = emulsion 0.5 μl, 10% Tween-80 500 μl
[6] = emulsion 1.65 μl, 10% Tween-80 500 μl
[7] = emulsion 5 μl, 10% Tween-80 495 μl
[8] = emulsion 50 μl, 10% Tween-80 450 μl
[9] = emulsion 165 μl, 10% Tween-80 335 μl
[10] = emulsion 15 μl, 1% Tween-80 485 μl
[11] = emulsion 37.5 μl, 1% Tween-80 462.5 μl
[12] = emulsion 150 μl, 1% Tween-80 350 μl
[13] = emulsion 225 μl, 1% Tween-80 275 μl
[14] = terpene emulsion vol 15, 1% Tween-80 485 μl
[15] = terpene emulsion vol 37.5, 1% Tween-80 462.5 μl
[16] = terpene emulsion vol 75, 1% Tween-80 425 μl
[17] = terpene emulsion vol 112.5, 1% Tween-80 387.5 μl
[18] = terpene emulsion vol 450, 1% Tween-80 50 μl
[19] = Table 25, Baker's 250 mg/ml, overnight
[20] = Table 25, Levacan 217 mg/ml, overnight
[21] = Table 25, Nutrex 163 mg/ml, overnight
[22] = Table 25, Nutricepts 99 mg/ml, overnight
[23] = Table 25, SAF Mannan 234 mg/ml, overnight
[24] = Table 25, WGP 121 mg/ml, overnight
[25] = Table 27, Baker's YP, emulsion 15 μl
[26] = Table 27, Baker's YP, emulsion 37.5 μl
[27] = Table 27, Baker's YP, emulsion 112.5 μl
[28] = Table 27, Baker's YP, emulsion 150 μl
[29] = Table 27, Baker's YP, emulsion 225 μl
[30] = Table 27, Baker's YP, emulsion 450 μl
[31] = colour of encapsulated terpene in pellet, SAF Mannan 500 μl, terpene emulsion vol 15
[32] = colour of encapsulated terpene in pellet, SAF Mannan 500 μl, terpene emulsion vol 37.5
[33] = colour of encapsulated terpene in pellet, SAF Mannan 500 μl, terpene emulsion vol 75
[34] = colour of encapsulated terpene in pellet, SAF Mannan 500 μl, terpene emulsion vol 112.5
[35] = colour of encapsulated terpene in pellet, SAF Mannan 500 μl, terpene emulsion vol 150
[36] = colour of encapsulated terpene in pellet, SAF Mannan 500 μl, terpene emulsion vol 225
[37] = colour of encapsulated terpene in pellet, SAF Mannan 500 μl, terpene emulsion vol 450

terpene emulsion absorbed and encapsulated per 10 mg of YP [1]: at least 16.5 μl
Free Terpene [1, 5]: −
Free Terpene [1, 6]: −
Free Terpene [1, 7]: −
Free Terpene ([1]; emulsion 16.5 μl, 10% Tween-80 483.5 μl): −
Free Terpene [1, 8]: +
Free Terpene [1, 9]: +
Free Terpene ([1]; emulsion 500 μl, no Tween-80): +
Free Terpene [2, 10]: −
Free Terpene [2, 11]: −
Free Terpene [2, 12]: +
Free Terpene [2, 13]: +
Vol. Loaded μl [2]: 37.5 µL
% Loaded w/w ([2]; maximal loading in Baker's YP, ratio of terpene loaded to particle present, weight for weight): 33.3 % w/w
Free Terpene [3, 14]: −
Free Terpene [3, 15]: −
Free Terpene [3, 16]: −
Free Terpene [3, 17]: −
Free Terpene [3, 18]: +
Vol. loaded (maximal terpene loading in SAF Mannan) [3]: 112.5 µL
% Loaded w/w (maximal terpene loading in SAF Mannan) [3]: 100% w/w
Colour [4, 19]: W
Colour [4, 20]: W
Colour [4, 21]: W
Colour [4, 22]: W
Colour [4, 23]: W
Colour [4, 24]: W
Color ([4]; 37 ° C., Bakers 250 mg/ml): W
Color ([4]; 37 ° C., Nutrex 100 mg/ml): W
Color ([4]; 37 ° C., SAF 100 mg/ml): W
Color ([4]; Rt, Bakers 250 mg/ml): W
Color ([4]; Rt, Nutrex 100 mg/ml): W
Color ([4]; Rt, SAF 100 mg/ml): W
Colour ([4]; Table 27, Baker's YP, emulsion 7 μl as printed): W
Colour [4, 25]: W
Colour [4, 26]: W
Colour [4, 27]: W
Colour [4, 28]: W
Colour [4, 29]: W
Colour [4, 30]: W
Colour [4, 31]: W
Colour [4, 32]: W
Colour [4, 33]: W
Colour [4, 34]: W
Colour [4, 35]: W
Colour [4, 36]: W
Colour [4, 37]: W
Compound: L-carvone

Compound: CC(C)=CCCC(C)=CC=O [Citral, citral]
terpene emulsion absorbed and encapsulated per 10 mg of YP [1]: at least 5 μl
Free Terpene [1, 5]: −
Free Terpene [1, 6]: −
Free Terpene [1, 7]: −
Free Terpene [1, 8]: +
Free Terpene [1, 9]: +
Free Terpene ([1]; emulsion 500 μl, no Tween-80): +
Free Terpene [2, 10]: −
Free Terpene [2, 11]: −
Free Terpene ([2]; emulsion 75 μl, 1% Tween-80 425 μl): −
Free Terpene [2, 12]: +
Free Terpene [2, 13]: +
Free Terpene ([2]; emulsion 450 μl, 1% Tween-80 50 μl): +
Vol. Loaded μl [2]: 75 µL
Free Terpene [3, 14]: −
Free Terpene [3, 15]: −
Free Terpene [3, 16]: −
Free Terpene [3, 17]: −
Free Terpene ([3]; terpene emulsion vol 225, 1% Tween-80 275 μl): +
Free Terpene [3, 18]: +
Free Terpene: phase inversion remark ([3]; terpene emulsion vol 150): Inverted
Free Terpene: phase inversion remark ([3]; terpene emulsion vol 225): Inverted
Free Terpene: phase inversion remark ([3]; terpene emulsion vol 450): Inverted
Vol. loaded (maximal terpene loading in SAF Mannan) [3]: 150 µL
% Loaded w/w (maximal terpene loading in SAF Mannan) [3]: 133% w/w
Colour [4, 19]: Y
Colour [4, 20]: int
Colour [4, 21]: Y
Colour [4, 22]: Y
Colour [4, 23]: W
Colour [4, 24]: int
Colour ([4]; Table 25, no particle, emulsion in 1% Tween 80, overnight): Y
Color ([4]; 37 ° C., Bakers 250 mg/ml): VY
Color ([4]; 37 ° C., Nutrex 100 mg/ml): VY
Color ([4]; 37 ° C., SAF 100 mg/ml): W
Color ([4]; Rt, Bakers 250 mg/ml): Y
Color ([4]; Rt, Nutrex 100 mg/ml): Y
Color ([4]; Rt, SAF 100 mg/ml): W
Colour [4, 25]: Y
Colour [4, 26]: Y
Colour ([4]; Table 27, Baker's YP, emulsion 75 μl): Y
Colour [4, 27]: Y
Colour [4, 28]: Y
Colour [4, 29]: Y
Colour [4, 30]: Y
Colour [4, 31]: W
Colour [4, 32]: W
Colour [4, 33]: W
Colour [4, 34]: W
Colour [4, 35]: W
Colour [4, 36]: W
Colour [4, 37]: W
